Data reported in the NIST ThermoML archive (doi:10.1021/je900050z).
Several values for one entry are separate records, joined by “and”; a condition that tells them apart may be missing. Equal values may be shown once.

Conditions: Liquid

C1CCCCC1 [cyclohexane]
Conditions	vapor or sublimation pressure
295.42 K	11.15 kPa
295.45 K	11.16 kPa
295.46 K	11.17 kPa
295.72 K	11.33 kPa
295.75 K	11.35 kPa
296.22 K	11.63 kPa
297.08 K	12.15 kPa
297.13 K	12.16 kPa and 12.17 kPa
297.86 K	12.61 kPa
297.99 K	12.71 kPa
298.83 K	13.23 kPa
299.75 K	13.8 kPa
299.77 K	13.81 kPa
300.85 K	14.52 kPa
302.63 K	15.71 kPa
303.02 K	16.03 kPa
303.15 K	16.11 kPa
304.38 K	17.04 kPa
304.4 K	17.05 kPa
304.42 K	17.07 kPa
306.05 K	18.33 kPa
306.4 K	18.6 kPa
307.45 K	19.4 kPa
308.06 K	19.91 kPa
309.5 K	21.12 kPa
310.98 K	22.47 kPa
312.48 K	23.89 kPa
313.15 K	24.56 kPa
313.84 K	25.25 kPa
315.01 K	26.47 kPa
315.26 K	26.67 kPa
316.32 K	27.88 kPa
317.51 K	29.23 kPa
318.31 K	30.09 kPa
318.67 K	30.56 kPa
319.81 K	31.93 kPa
320.87 K	33.27 kPa
321.91 K	34.59 kPa
321.99 K	34.69 kPa
322.94 K	35.95 kPa
323.15 K	36.27 kPa
323.44 K	36.59 kPa
323.88 K	37.23 kPa
323.95 K	37.33 kPa
324.83 K	38.56 kPa
326.12 K	40.45 kPa
326.68 K	41.25 kPa
327.61 K	42.68 kPa
328.43 K	43.97 kPa
329.32 K	45.4 kPa
329.35 K	45.43 kPa
330.05 K	46.59 kPa
330.94 K	48.07 kPa
331.68 K	49.32 kPa
332.02 K	49.89 kPa
332.41 K	50.6 kPa
333.11 K	51.87 kPa
333.15 K	51.92 kPa
333.83 K	53.15 kPa
333.86 K	53.19 kPa
334.53 K	54.47 kPa
335.26 K	55.85 kPa
335.64 K	56.56 kPa
335.95 K	57.19 kPa
336.7 K	58.63 kPa
337.36 K	59.96 kPa
338.06 K	61.39 kPa and 61.4 kPa
338.65 K	62.63 kPa
338.67 K	62.64 kPa
339.29 K	63.95 kPa
339.92 K	65.29 kPa
340.54 K	66.63 kPa
341.12 K	67.95 kPa
341.72 K	69.29 kPa
342.32 K	70.65 kPa
342.88 K	71.93 kPa
343.15 K	72.6 kPa
343.43 K	73.25 kPa
344.05 K	74.73 kPa
344.55 K	75.96 kPa
345.08 K	77.27 kPa
345.69 K	78.76 kPa
346.18 K	80 kPa
346.67 K	81.25 kPa
347.18 K	82.56 kPa and 82.57 kPa
347.69 K	83.89 kPa
348.19 K	85.23 kPa
348.65 K	86.49 kPa
349.19 K	87.93 kPa
349.72 K	89.43 kPa
350.18 K	90.64 kPa
350.25 K	90.87 kPa
350.67 K	92.07 kPa
351.1 K	93.27 kPa
351.57 K	94.63 kPa
352.01 K	95.92 kPa
352.45 K	97.23 kPa
352.9 K	98.57 kPa
353.15 K	99.31 kPa
353.36 K	99.95 kPa
